Here are results for 17 compounds from PMC12643354, “From Oxygen to Tellurium: The Impact of the Chalcogen on Nucleophilicities and Basicities of Isochalcogenourea Catalysts” (Angewandte Chemie (International Ed. in English), 2025).

Values joined by “and” are separate entries in the source; they are usually repeats but may differ in a detail not shown here. Identical values can stand only once. Like-named read-outs stand apart in the source and are kept apart here.

For series [1] the following is noted: cited from earlier work.
Series [2] in a line: Mayr nucleophilicity parameters N and sN (benzhydrylium methodology, Mayr-Patz equation). The conditions noted are these: dichloromethane, 20 °C. The format is physicochemical. From the text:
(1) Mayr-Patz Equation: lgk20^∘C=sN(N+E)
The MPE is a linear‐free‐energy relationship that characterizes electrophiles by the electrophilicity parameter E and nucleophiles by the solvent‐dependent parameters N (nucleophilicity) and s N (sensitivity toward changes in the electrophile reactivity). By using the MPE (Equation (1)), the construction of comprehensive nucleophilicity and electrophilicity scales becomes possible, which facilitate the comparison of various classes of Lewis base organocatalysts.^[ [110], [111], [112], [113], [114], [115], [116], [117], [118], [119], [120] ^]
In order to systematically investigate the influence of the chalcogen atom on the nucleophilicity of DHPB‐derived IChUs (Ch = O, S, Se, and Te), we utilized Mayr's benzhydrylium methodology.^[ [107] ^]
Figure 4 illustrates the linear correlations of the second‐order rate constants (lg k 2) with the electrophilicities E of Ar2CH^+ (18), which makes it possible to determine the Mayr nucleophilicity parameters N (and s N) for the DHPB‐derived IChUs IU3, ITU3, ISeU3, and ITeU3. […]
Figure 4 Linear correlations of second‐order rate constants (lg k 2) for the reactions of IU3, ITU3, ISeU3, and ITeU3 with Ar2CH^+ 18 (in dichloromethane at 20 °C) with the electrophilicities E of 18. The slopes of the linear correlations equal the nucleophile‐dependent sensitivity parameter s N. Intercepts on the abscissa reflect the nucleophilicity parameter N (N = –E at lg k 2 = 0).

The nature of series [3]: Lewis basicity LB from equilibrium constants (photometric titrations) with benzhydrylium ions as reference Lewis acids. Format: physicochemical. The arrangement: key: Mayr Lewis basicity scale; LB from K and reference LA via Eq. (3). The conditions noted are these: in dichloromethane, 20 °C. Here is the method: (a) Lewis basicity. Previously, the Mayr group established a series of benzhydrylium ions as C‐centered Lewis acid references to construct a Lewis basicity scale in dichloromethane. Substituting experimentally determined equilibrium constants K (at 20 °C) and reported Lewis acidities LA for the benzhydrylium ions (Figure 7) in Equation (3) enables one to calculate the Lewis basicity (LB) of a Lewis base.^[ [121], [127] ^] (3) lgK(20^∘C)=LA+LB
The reversibility of the formation of adducts 19 (Equation (4)), which was also apparent in the kinetics by significant positive intercepts in several of the k obs versus [IChU] plots (Supporting Information), provided the opportunity to probe the thermodynamics of the C‐N bond‐forming reactions of IChUs with benzhydrylium ions as the reference Lewis acids in more detail.^[ [95] ^] (4) IChU+Ar2CH^+(18)⇌Ar2CH-IChU^+(19)
By assuming the validity of the Beer–Lambert law for dilute solutions, equilibrium constants K (L mol^−1) were determined in photometric titrations according to Equation (5) from the initial absorbance (A 0) of the benzhydrylium ions 18 and the absorbance at equilibrium (A, Equation 5), that is, after addition of a certain amount of an IChU.^[ [109], [110], [111], [112], [113], [114], [115], [119] ^] (5) K=[19]/[18]IChU=A0−A/AIChU

A short description of series [4]: Mayr nucleophilicity parameters N and sN (benzhydrylium methodology, Mayr-Patz equation). Format: physicochemical. The conditions noted are these: 20 °C.
The conditions of series [5]: dichloromethane, 20 °C; cited from earlier work.
Setting [6] is: in acetonitrile, ref SI [25]-[30].

As for `O=C(O)c1ccc([N+](=O)[O-])cc1[N+](=O)[O-]` [2,4-Dinitrobenzoic acid], the “Literature pKa of indicators and acids” value in series [1] (in DMSO, ref SI [31]-[36]) is 6.5.
With `CN(C)c1ccncc1` [4-(dimethylamino)pyridine], the “Literature pKa of indicators and acids” value in series [1] (in DMSO, ref SI [31]-[36]) is 7.91; in series [1] (setting [6]) it was 17.95.
For the compound `Fc1ccc2c(c1)SC1=N[C@H](c3ccccc3)CN12` [F-ITU2, 7-F-BTM], in series [2], the “Nucleophile-specific sensitivity parameter sN” value came out at 0.66; the “Nucleophilicity parameter N” value was 13.45 and 13.46. Further, the “Lewis basicity LB” value in series [3] amounted to 14.18.
For `c1ccc(C2CN3CC[Se]C3=N2)cc1` (centres unmarked) [ISeU1, SeTM], in series [2], the “Nucleophile-specific sensitivity parameter sN” value is 0.60 and the “Nucleophilicity parameter N” value was found to be 15.26.
For `c1ccc([C@@H]2CN3C(=N2)[Se]c2ccccc23)cc1` [ISeU2, SeBTM], in series [2], the “Nucleophile-specific sensitivity parameter sN” value stood at 0.63 and the “Nucleophilicity parameter N” value is 14.27. Besides, the “Lewis basicity LB” value in series [3] came out at 15.23.
On to `c1ccc([C@@H]2CCN3C(=N2)[Se]c2ccccc23)cc1` [ISeU4, SeHBTM], for which, in series [2], the “Nucleophile-specific sensitivity parameter sN” value was found to be 0.67 and the “Nucleophilicity parameter N” value was found to be 14.42. In series [3], the “Lewis basicity LB” value is reported as 14.03.
Regarding `CC(C)[C@@H]1CN2C(=N[C@@H]1c1ccccc1)[Se]c1ccccc12` [ISeU5, SeHyperBTM], the “Nucleophile-specific sensitivity parameter sN” value in series [4] (THF) worked out at 0.77; in series [4] (acetonitrile), 0.57; in series [2], 0.58. For the same compound, the “Nucleophilicity parameter N” value was 14.19 in series [4] (THF), 15.84 in series [4] (acetonitrile) and 16.11 in series [2]. Also, in series [3], the “Lewis basicity LB” value was 14.75.
Take `c1ccc(C2CN3CCSC3=N2)cc1` (centres unmarked) [ITU1, tetramisole, reference compound]: in series [2], the “Nucleophile-specific sensitivity parameter sN” value is recorded as 0.68 and the “Nucleophilicity parameter N” value was 13.86. In series [3], the “Lewis basicity LB” value was found to be 15.50.
Turning to `c1ccc([C@@H]2CN3C(=N2)Sc2ccccc23)cc1` [ITU2, benzotetramisole], in series [2], the “Nucleophile-specific sensitivity parameter sN” value worked out at 0.73 and the “Nucleophilicity parameter N” value was found to be 13.06. In series [3], the “Lewis basicity LB” value is 14.88.
Turning to `c1ccc([C@@H]2CCN3C(=N2)Sc2ccccc23)cc1` [ITU4, HBTM], in series [3], the “Lewis basicity LB” value was 13.43. In addition, in series [5], the “Nucleophilicity parameter N” value is recorded as 13.45.
Regarding `CC(C)[C@@H]1CN2C(=N[C@@H]1c1ccccc1)Sc1ccccc12` [ITU5, HyperBTM], the “Lewis basicity LB” value in series [3] amounted to 14.12. Besides, the “Nucleophilicity parameter N” value in series [5] is listed as 14.96.
For `c1ccc([C@@H]2CN3C(=N2)[Te]c2ccccc23)cc1` [ITeU2, TeBTM], in series [2], the “Nucleophile-specific sensitivity parameter sN” value is 0.66 and the “Nucleophilicity parameter N” value was determined as 14.62. In series [3], the “Lewis basicity LB” value is 17.09.
On the same counts, the results for `CC(C)[C@@H]1CN2C(=N[C@@H]1c1ccccc1)Oc1ccccc12` [IU5, OHyperBTM] are 0.73, 13.01 and 12.42.
With `COc1ccc2c(c1)SC1=N[C@H](c3ccccc3)CN12` [MeO-ITU2, 7-MeO-BTM], in series [2], the “Nucleophile-specific sensitivity parameter sN” value is listed as 0.75 and the “Nucleophilicity parameter N” value is recorded as 13.15. The “Lewis basicity LB” value in series [3] worked out at 15.22.
Take `CC1(C)OC(=O)CC(=O)O1` [Meldrum’s acid]: the “Literature pKa of indicators and acids” value in series [1] (in DMSO, ref SI [31]-[36]) is listed as 7.3.
`CN(C)c1cccc2cccc(N(C)C)c12` [Proton Sponge]: the “Literature pKa of indicators and acids” value in series [1] (in DMSO, ref SI [31]-[36]) is recorded as 7.47.
`C1CCNC1` [Pyrrolidine]: the “Literature pKa of indicators and acids” value in series [1] (in DMSO, ref SI [31]-[36]) is given as 11.06; in series [1] (setting [6]), 19.56.
